Molecules are shown by their SMILES.

One assay relates to MCF7. Briefly: MTT test, MCF7. The assay is classed as cell-based. The following applies: Homo sapiens, 10^−5 M, 72 hours, control = 100%, mean ± SEM, read-out: average optical density (MTT), percentage relative to control. The essentials:
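T-47D and MCF7 cells in MEM/25 mM HEPES with 5% FCS, treated 72 h at 37 °C with compound at 10^−5 to 10^−10 M, 24 h after seeding. MTT (1 mg/ml) added for 3 h, formazan dissolved in DMSO, read at 570/630 nm. Optical density expressed as % of solvent control.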
For orientation: Tetrazolium assays rely on reduction of a dye to a coloured formazan, in cell work by metabolically active cells.

For the next assay, the system named is U-373MG. Briefly: MTT test, U-373MG. The assay is classed as cell-based. The following applies: Homo sapiens, U373 MG, 10^−5 M, 72 hours, control = 100%, mean ± SEM, read-out: average optical density (MTT), percentage relative to control. The essentials: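 Human glioblastoma lines in MEM/25 mM HEPES with 5% FCS, seeded 24 h, then exposed 72 h at 37 °C to compounds at 10^−5 to 10^−10 M or solvent. MTT (1 mg/ml) 3 h, formazan dissolved in DMSO, absorbance 570/630 nm; optical density expressed as % of solvent control.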

In the case of `COc1ccc(-c2cc3c(OC)cc(OC)cc3[nH]c2=O)cc1` [CRL8246, 5,7-Dimethoxy-3-(4-methoxyphenyl)-1,2-dihydro-2-quinolinone], the values for the viability at 10 µM in the assay on MCF7 and in the assay on U-373MG were 98.1 ± 1.4% and 96.6 ± 1.2%, respectively.
As for `COc1ccc(-c2cc3c(OC)cc(OC)cc3n(CCC#N)c2=O)cc1` [CRL8247, 3-[5,7-Dimethoxy-3-(4-methoxyphenyl)-2-oxo-1,2-dihydro-1-quinolinyl]propanenitrile], the viability at 10 µM was 78.9 ± 1.1% in the assay with MCF7 and 68.7 ± 2.8% in the assay with U-373MG.
For `COc1ccc(-c2cc3c(OC)cc(OC)cc3n(CCc3nnn[nH]3)c2=O)cc1` [CRL8256, 1-[2-(1H-1,2,3,4-Tetrazol-5-yl)ethyl]-5,7-dimethoxy-3-(4-methoxyphenyl)-1,2-dihydro-2-quinolinone] the same measures were 81.8 ± 1.6% and 76.1 ± 2.6%.
In the case of `CCN(CC)C(=O)CCn1c(=O)c(-c2ccc(OC)cc2)cc2c(OC)cc(OC)cc21` [CRL8283, N,N-Diethyl-3-[5,7-dimethoxy-3-(4-methoxy-phenyl)-2-oxo-1,2-dihydro-1-quinolinyl]propanamide], the viability at 10 µM with MCF7 was found to be 76.2 ± 0.9%; in the assay on U-373MG, 93.4 ± 1.5%.
Take `CCN(CC)C(=O)Cn1c(=O)c(-c2ccc(OC)cc2)cc2c(OC)cc(OC)cc21` [CRL8315, N,N-Diethyl-2-[5,7-dimethoxy-3-(4-methoxy-phenyl)-2-oxo-1,2-dihydro-1-quinolinyl]acetamide]: the figures for the viability at 10 µM with MCF7 and with U-373MG were 96.2 ± 1.7% and 68.9 ± 2.2%, respectively.
For `COc1ccc(-c2cc3c(OC)cc(OC)cc3n(CCN(C)C)c2=O)cc1` [CRL8316, 1-[2-(Dimethylamino)ethyl]-5,7-dimethoxy-3-(4-methoxyphenyl)-1,2-dihydro-2-quinolinone] the same measures were 78.9 ± 4% and 89.8 ± 2.9%.

The values are drawn from patent publication US6593342B1, “Pharmaceutical compositions comprising 2-quinolones” (Laboratoire L. Lafon, priority 1998, dated 2003).
